The values below come from US11629139B2 (priority 2017, dated 2023).

This assay concerns vesicular stomatitis virus particles (VSV) pseudotyped with EboV Zaire GP. The assay is described as follows: microbe, parasite or virus in culture. It is filed as cell-based. Particulars: Vesicular stomatitis virus.
One may read the IC50 as the point on the concentration scale where inhibition reaches its midpoint. Low values mean greater potency, high ones weaker potency. Regarding `O=C(CC1CCC(F)(F)CC1)NCC(=O)N1CCN(Cc2cc(Cl)ccc2Cl)CC1` [Compound 1366, N-(2-(4-(2,5-Dichlorobenzyl)piperazin-1-yl)-2-oxoethyl)-2-(4,4-difluorocyclohexyl)acetamide], the half-inhibitory concentration (IC50) is greater than 2000 nM.

The compound `O=C(CC1CCC(F)(F)CC1)NCC(=O)N1CCN(Cc2cc(Cl)ccc2F)CC1` [Compound 1367, N-(2-(4-(5-chloro-2-fluorobenzyl)piperazin-1-yl)-2-oxoethyl)-2-(4,4-difluorocyclohexyl)acetamide] yielded an IC50 greater than 2000 nM.

On to `O=C(CC1CCC(F)(F)CC1)NCC(=O)N1CCN(Cc2cc(Cl)c(F)cc2F)CC1` [Compound 1368, N-(2-(4-(5-chloro-2,4-difluorobenzyl)piperazin-1-yl)-2-oxoethyl)-2-(4,4-difluorocyclohexyl)acetamide], for which the IC50 was greater than 2000 nM.

Take `O=C(CC1CCC(F)(F)CC1)NCC(=O)N1CCN(Cc2cc(Cl)cc(F)c2F)CC1` [Compound 1369, N-(2-(4-(5-Chloro-2,3-difluorobenzyl)piperazin-1-yl)-2-oxoethyl)-2-(4,4-difluorocyclohexyl)acetamide]: the IC50 is greater than 2000 nM.

With `O=C(CC1CCC(F)(F)CC1)NCC(=O)N1CCN(Cc2cc(Br)ccc2F)CC1` [Compound 1370, N-(2-(4-(5-Bromo-2-fluorobenzyl)piperazin-1-yl)-2-oxoethyl)-2-(4,4-difluorocyclohexyl)acetamide], the IC50 is roughly 2200 nM.

In turn, `N#Cc1ccc(Br)cc1CN1CCN(C(=O)CNC(=O)CC2CCC(F)(F)CC2)CC1` [Compound 1371, N-(2-(4-(5-Bromo-2-cyanobenzyl)piperazin-1-yl)-2-oxoethyl)-2-(4,4-difluorocyclohexyl)acetamide] showed an IC50 greater than 2000 nM.

Compound `O=C(CC1CCC(F)(F)CC1)NCC(=O)N1CCN(Cc2cc(Cl)ccc2OC(F)(F)F)CC1` [Compound 1372] registered an IC50 greater than 2000 nM.

The compound `O=C(CC1CCC(F)(F)CC1)NCC(=O)N1CCN(Cc2cc(Br)ccc2Cl)CC1` [Compound 1374, N-(2-(4-(5-Bromo-2-chlorobenzyl)piperazin-1-yl)-2-oxoethyl)-2-(4,4-difluorocyclohexyl)acetamide] yielded an IC50 greater than 2000 nM.

For `O=C(CC1CCC(F)(F)CC1)NCC(=O)N1CCN(Cc2cc(Br)ccc2NC(=O)C2CC2)CC1` [Compound 1375, N-(4-Bromo-2-((4-((2-(4,4-difluorocyclohexyl)acetyl)glycyl)piperazin-1-yl)methyl)phenyl)cyclopropanecarboxamide], the IC50 is greater than 2000 nM.

The compound `COC(=O)c1ccc(COc2ccccc2CN2CCN(C(=O)CNC(=O)C3(F)CC3)CC2)cc1` [Compound 1376, Methyl 4-((2-((4-((1-fluorocyclopropane-1-carbonyl)glycyl)piperazin-1-yl)methyl)phenoxy)methyl)benzoate] gave an IC50 greater than 2000 nM.

Compound `O=C(CC1CCC(F)(F)CC1)NCC(=O)N1CCN(Cc2cc(Cl)ccc2NC(=O)C2CC2)CC1` [Compound 1378, N-(4-Chloro-2-((4-((2-(4,4-difluorocyclohexyl)acetyl)glycyl)piperazin-1-yl)methyl)phenyl)cyclopropanecarboxamide] had an IC50 greater than 2000 nM.

`O=C(CC1CCC(F)(F)CC1)NCC(=O)N1CCN(Cc2cc(Cl)ccc2NS(=O)(=O)C2CC2)CC1` [Compound 1379, N-(2-(4-(5-Chloro-2-(cyclopropanesulfonamido)benzyl)piperazin-1-yl)-2-oxoethyl)-2-(4,4-difluorocyclohexyl)acetamide] gave a 50% inhibitory concentration (IC50) of roughly 2200 nM.

`Nc1c(Cl)cc(Cl)cc1CN1CCN(C(=O)CNC(=O)CC2CCC(F)(F)CC2)CC1` [Compound 1381, N-(2-(4-(2-Amino-3,5-dichlorobenzyl)piperazin-1-yl)-2-oxoethyl)-2-(4,4-difluorocyclohexyl)acetamide]: the half-maximal inhibitory concentration (IC50) was greater than 2000 nM.

Consider `O=C(CC1CCC(F)(F)CC1)NCC(=O)N1CCN(Cc2cccc(Cl)c2Cl)CC1` [Compound 1382, N-(2-(4-(2,3-Dichlorobenzyl)piperazin-1-yl)-2-oxoethyl)-2-(4,4-difluorocyclohexyl)acetamide], for which the IC50 was greater than 2000 nM.

`O=C(CC1CCC(F)(F)CC1)NCC(=O)N1CCN(Cc2cc(Cl)cc(Cl)c2)CC1` [Compound 1383, N-(2-(4-(3,5-dichlorobenzyl)piperazin-1-yl)-2-oxoethyl)-2-(4,4-difluorocyclohexyl)acetamide] returned a 50% inhibitory concentration (IC50) greater than 2000 nM.

In turn, `COc1ccc(Cl)cc1CN1CCN(C(=O)CNC(=O)CC2CCC(F)(F)CC2)CC1` [Compound 1384, N-(2-(4-(5-Chloro-2-methoxybenzyl)piperazin-1-yl)-2-oxoethyl)-2-(4,4-difluorocyclohexyl)acetamide] returned an IC50 of 330 nM.

Take `Nc1cc(Cl)cc(CN2CCN(C(=O)CNC(=O)CC3CCC(F)(F)CC3)CC2)c1` [Compound 1385, N-(2-(4-(3-Amino-5-chlorobenzyl)piperazin-1-yl)-2-oxoethyl)-2-(4,4-difluorocyclohexyl)acetamide]: the IC50 came to 2200 nM.

Regarding `Nc1ccc(Cl)cc1CN1CCN(C(=O)CNC(=O)C2C3CC(F)(F)CC32)CC1` [Compound 1386, (1R,5S,6r)-N-(2-(4-(2-Amino-5-chlorobenzyl)piperazin-1-yl)-2-oxoethyl)-3,3-difluorobicyclo[3.1.0]hexane-6-carboxamide], the IC50 was 4400 nM.

For `Nc1ccc(CN2CCN(C(=O)CNC(=O)CC3CCC(F)(F)CC3)CC2)cc1Cl` [Compound 1387, N-(2-(4-(4-Amino-3-chlorobenzyl)piperazin-1-yl)-2-oxoethyl)-2-(4,4-difluorocyclohexyl)acetamide], the IC50 is greater than 5000 nM.

`Nc1cc(Cl)cc(CN2CCN(C(=O)CNC(=O)C3CC34CCC(F)(F)CC4)CC2)c1` (centres unmarked) [Compound 1388, N-(2-(4-(3-Amino-5-chlorobenzyl)piperazin-1-yl)-2-oxoethyl)-6,6-difluorospiro[2.5]octane-1-carboxamide] yielded an IC50 of 500 nM.

On to `Nc1ccc(CN2CCN(C(=O)CNC(=O)C3CC34CCC(F)(F)CC4)CC2)cc1Cl` (centres unmarked) [Compound 1390, N-(2-(4-(4-Amino-3-chlorobenzyl)piperazin-1-yl)-2-oxoethyl)-6,6-difluorospiro[2.5]octane-1-carboxamide], for which the IC50 stood at 1100 nM. This IC50 lies about 2.2-fold higher than the previous one.

Consider `CNc1ccc(Cl)cc1CN1CCN(C(=O)CNC(=O)C2CC23CCC(F)(F)CC3)CC1` (centres unmarked) [Compound 1391, N-(2-(4-(5-Chloro-2-(methylamino)benzyl)piperazin-1-yl)-2-oxoethyl)-6,6-difluorospiro[2.5]octane-1-carboxamide], for which the IC50 was 80 to 260 nM.

Compound `O=C(Nc1ccccc1)Nc1ncc(Cl)cc1CN1CCN(C(=O)CNC(=O)C2CC23CCC(F)(F)CC3)CC1` (centres unmarked) [Compound 1392, N-(2-(4-((5-Chloro-2-(3-phenylureido)pyridin-3-yl)methyl)piperazin-1-yl)-2-oxoethyl)-6,6-difluorospiro[2.5]octane-1-carboxamide] returned an IC50 of 1000 nM.

Regarding `O=C(Nc1ncc(Cl)cc1CN1CCN(C(=O)CNC(=O)C2CC23CCC(F)(F)CC3)CC1)NC1CC1` (centres unmarked) [Compound 1393, N-(2-(4-((5-Chloro-2-(3-cyclopropylureido)pyridin-3-yl)methyl)piperazin-1-yl)-2-oxoethyl)-6,6-difluorospiro[2.5]octane-1-carboxamide], the IC50 was greater than 5000 nM.

Regarding `Nc1ccc(C2CC2)cc1CN1CCN(C(=O)CNC(=O)C2CC23CCC(F)(F)CC3)CC1` (centres unmarked) [Compound 1397], the IC50 fell in the range of 2400 to 4200 nM.

In turn, `O=C(NCC(=O)N1CCN(Cc2cc(Cl)ccc2O)CC1)C1CC12CCC(F)(F)CC2` (centres unmarked) [Compound 1398, N-(2-(4-(5-Chloro-2-hydroxybenzyl)piperazin-1-yl)-2-oxoethyl)-6,6-difluorospiro[2.5]octane-1-carboxamide] came in with an IC50 of 75 to 320 nM.

As to `CCC1(CC)CC1C(=O)NCC(=O)N1CCN(Cc2cc(Cl)ccc2O)CC1` (centres unmarked) [Compound 1399, N-(2-(4-(5-Chloro-2-hydroxybenzyl)piperazin-1-yl)-2-oxoethyl)-2,2-diethylcyclopropane-1-carboxamide], the midpoint of inhibition, the IC50, lay at 220 nM.

Turning to `O=C(CC1CCC(F)(F)CC1)NCC(=O)N1CCN(Cc2cc(Br)ccc2O)CC1` [Compound 1400, N-(2-(4-(5-Bromo-2-hydroxybenzyl)piperazin-1-yl)-2-oxoethyl)-2-(4,4-difluorocyclohexyl)acetamide], the IC50 was 670 nM.

`O=C(CC1CCC(F)(F)CC1)NCC(=O)N1CCN(Cc2cc(Cl)cc(Cl)c2O)CC1` [Compound 1401, N-(2-(4-(3,5-Dichloro-2-hydroxybenzyl)piperazin-1-yl)-2-oxoethyl)-2-(4,4-difluorocyclohexyl)acetamide] showed an IC50 of 3700 nM.

With `O=C(CC1CCC(F)(F)CC1)NCC(=O)N1CCN(Cc2cc(Cl)cc(F)c2O)CC1` [Compound 1402, N-(2-(4-(5-Chloro-3-fluoro-2-hydroxybenzyl)piperazin-1-yl)-2-oxoethyl)-2-(4,4-difluorocyclohexyl)acetamide], it took 2900 nM to reach half-maximal inhibition (IC50).

`O=C(CC1CCC(F)(F)CC1)NCC(=O)N1CCN(Cc2cc(Cl)ccc2O)CC1` [Compound 1403, N-(2-(4-(5-Chloro-2-hydroxybenzyl)piperazin-1-yl)-2-oxoethyl)-2-(4,4-difluorocyclohexyl)acetamide] gave an IC50 of 190 to 730 nM.

Consider `O=C(NCC(=O)N1CCN(Cc2cc(Cl)cc(F)c2O)CC1)C1CC12CCC(F)(F)CC2` (centres unmarked) [Compound 1404, N-(2-(4-(5-chloro-3-fluoro-2-hydroxybenzyl)piperazin-1-yl)-2-oxoethyl)-6,6-difluorospiro[2.5]octane-1-carboxamide], for which the IC50 was 630 nM.

For `O=C(NCC(=O)N1CCN(Cc2cc(Cl)cc3cccnc23)CC1)C1CC12CCC(F)(F)CC2` (centres unmarked) [Compound 1405, N-(2-(4-((6-Chloroquinolin-8-yl)methyl)piperazin-1-yl)-2-oxoethyl)-6,6-difluorospiro[2.5]octane-1-carboxamide], the IC50 was 70 to 260 nM.

Take `O=C(CC1CCC(F)(F)CC1)NCC(=O)N1CCN(Cc2cc(Cl)cc3cn[nH]c23)CC1` [Compound 1406, N-(2-(4-((5-Chloro-JH-indazol-7-yl)methyl)piperazin-1-yl)-2-oxoethyl)-2-(4,4-difluorocyclohexyl)acetamide]: the IC50 was 460 nM.

Take `Nc1c(Cl)cccc1CN1CCN(C(=O)CNC(=O)C2CC23CCC(F)(F)CC3)CC1` (centres unmarked) [Compound 1407, N-(2-(4-(2-Amino-3-chlorobenzyl)piperazin-1-yl)-2-oxoethyl)-6,6-difluorospiro[2.5]octane-1-carboxamide]: the IC50 lay in the range of 230 to 500 nM.
